This is an account of results in patent publication US7842808B2, “Anti-migraine spirocycles” (Bristol-Myers Squibb Company, priority 2002, dated 2010).

Where two headings read alike, the source gives them in different places.

Assay [1] deals with T1, human CGRP receptor (SK-N-MC cells) (Homo sapiens, UniProt O60894+Q16602).
T1 construct: SK-N-MC cells that endogenously express the human CGRP receptor; endogenous in cells; host or cells: SK-N-MC cells
Nature of the assay: Schild analysis of CGRP stimulated cAMP production. The assay is classed as cell-based. As to conditions: for slope: Schild plot slope. The method, then:
Functional Antagonism. Antagonism of the compounds of invention was determined by measuring the formation of cyclic AMP (adenosine 3′5′-cyclic monophosphate) in SK-N-MC cells that endogenously express the human CGRP receptor. CGRP receptor complex is coupled with Gs protein and CGRP binding to this complex leads to the cyclic AMP production via Gs—dependent activation of an adenylate cyclase (Juaneda C et al., TiPS, 2000; 21:432-438; incorporated by reference herein). Consequently, CGRP receptor antagonists inhibit CGRP-induced cyclic AMP formation in SK-N-MC cells (Doods H et al., Br J Pharmacol, 2000; 129(3):420-423); incorporated by reference herein). For cyclic AMP measurements SK-N-MC cells were incubated with 0.3 nM CGRP alone or in the presence of various concentrations of the compounds of invention for 30 min at room temperature. Compounds of invention were pre-incubated with SK-N-MC cells for 15 min before the addition of CGRP to allow receptor occupancy (Edvinsson et al., Eur J Pharmacol, 2001, 415:39-44; incorporated by reference herein). Cyclic AMP was extracted using the lysis reagent and its concentration was determined by radioimmunoassay using RPA559 cAMP SPA Direct Screening Assay Kit (Amersham Pharmacia Biotech). IC50 values were calculated using Excel fit.
Schild Analysis. Schild analysis can be used to characterize the nature of antagonism of the compounds of invention. The dose response of CGRP stimulated cAMP production was generated either with CGRP alone, or in the presence of various concentrations of compounds of invention. The antagonist dose is plotted as X against the dose ratio (defined as IC50 of agonist with the presence of the compounds divided by the IC50 of the agonist alone) minus 1 as Y. Linear regression was then performed with both X and Y axis log-transformed. […] Kb is the dissociation constant of the antagonist.

For assay [2], the system named is human cerebral vessels (CGRP-induced dilation). Nature of the assay: Ex Vivo Human Cerebral Artery Assay, reversal of CGRP-induced relaxation. Conditions: reversal of 1 nM hCGRP-induced relaxation, vessels pre-contracted with 10 mM KCl. An excerpt:
Rationale and Overview. To provided direct evidence of the ability for novel compounds to reverse CGRP-induced dilation in human cerebral vessels, an ex vivo assay was design. Briefly, isolated vessel rings were mounted in a tissue bath where vessels were pre-contracted with potassium chloride (KCl) and fully dilated with hCGRP, then this relaxation was reversed by the cumulative addition of CGRP-receptor antagonists (complete details follow).
Tissue Samples. Autopsy samples of human arteries were obtained from vendors (ABS Inc. or NDRI). All vessels were transported on ice-cold HEPES buffer (composition in mM: NaCl 130, KCl 4, KH2PO4 1.2, MgSO4 1.2, CaCl2 1.8, Glucose 6, NaHCO3 4, HEPES 10, EDTA 0.025). Upon receipt, the vessels were placed in cold Kreb's buffer (composition in mM: NaCl 118.4, KCl 4.7, KH2PO4 1.2, MgSO4 1.2, CaCl2 1.8, Glucose 10.1, NaHCO3 25) saturated with carbogen (5% CO2 and 95% oxygen).
Isolated Tissue Baths. The vessels were cleaned of connective tissues and cut into cylindrical segments of 4-5 mm in length. The vessels were then mounted in tissue baths between two stainless steel hooks; one of which is fixed and the other of which was connected to a force displacement transducer. The vessel tension was continuously recorded using a data acquisition system (Powerlab, ADInstruments, Mountain View, Calif.) connected to the transducer. The tissue baths containing Krebs buffer and mounted vessels were temperature (37° C.) and pH (7.4) controlled with continuous bubbling of carbogen. The artery segments were allowed to equilibrate for about 30-45 min until a stable resting tone was achieved. Prior to the assay, vessels were primed (conditioned) with 100 mM KCl and subsequently washed. The vessels were pre-contracted with 10 mM KCl and fully dilated with 1 nM hCGRP. Concentration-response curves to CGRP-receptor antagonists were performed by the cumulative addition of drugs in half log units in fully dilated vessels. At each concentration, the effects of the drugs were expressed as % reversal of CGRP-induced relaxation in each vessel. The actual assay and data analysis were performed for each vessel individually, fitting the concentration-response data to a four parameter logistic function by non-linear regression analysis, to estimate the EC50 values.

The target of assay [3] is T2, CGRP receptor (SK-N-MC cell membranes) (Homo sapiens, UniProt O60894+Q16602).
T2 construct: endogenous in cells; host or cells: SK-N-MC cells (membrane homogenate)
Nature of the assay: CGRP Binding Assay ([125I]-CGRP radioligand binding, SK-N-MC homogenate). Conditions: displacement of [125I]-CGRP, SK-N-MC homogenate; read-out: CGRP binding IC50.

Assay [4] concerns the target T1, human CGRP receptor (SK-N-MC cells). Nature of the assay: Cyclic AMP Assay, functional antagonism of CGRP-induced cyclic AMP formation. The assay is classed as cell-based. Summed up:
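SK-N-MC cells, which endogenously express human CGRP receptor, stimulated with 0.3 nM CGRP with or without compound for 30 min at room temperature. Cellular cAMP extracted by lysis and quantified by SPA radioimmunoassay; IC50 from inhibition of CGRP-induced cAMP.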

The mark [5] stands for this setting: Schild analysis, dissociation constant of the antagonist, read-out: Kb.
Where [6] appears, read: SK-N-MC cells, 0.3 nM CGRP, read-out: cAMP Function IC50.

T1 sequence (Q16602 23-461): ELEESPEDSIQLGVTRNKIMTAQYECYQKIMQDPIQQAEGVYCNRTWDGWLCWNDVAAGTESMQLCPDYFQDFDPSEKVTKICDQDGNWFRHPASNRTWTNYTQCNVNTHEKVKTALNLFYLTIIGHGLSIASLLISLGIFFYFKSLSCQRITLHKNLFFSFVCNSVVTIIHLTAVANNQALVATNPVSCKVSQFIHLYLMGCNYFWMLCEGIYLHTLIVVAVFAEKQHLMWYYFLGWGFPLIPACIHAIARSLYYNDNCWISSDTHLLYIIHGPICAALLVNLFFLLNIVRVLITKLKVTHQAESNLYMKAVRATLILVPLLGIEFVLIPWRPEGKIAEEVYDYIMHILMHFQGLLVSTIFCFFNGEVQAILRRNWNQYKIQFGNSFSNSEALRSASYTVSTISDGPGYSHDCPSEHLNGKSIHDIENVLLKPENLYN
T1 sequence (O60894 27-148): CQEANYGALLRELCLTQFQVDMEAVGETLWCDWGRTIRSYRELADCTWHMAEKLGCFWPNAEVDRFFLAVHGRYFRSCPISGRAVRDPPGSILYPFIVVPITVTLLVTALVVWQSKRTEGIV
T2 sequence (Q16602 23-461): as the sequence (Q16602 23-461) above
T2 sequence (O60894 27-148): as the sequence (O60894 27-148) above

With `O=C(NC(Cc1cc(Cl)c2[nH]ncc2c1)C(=O)N1CCC(N2CCCCC2)CC1)N1CCC(N2Cc3ccccc3NC2=O)CC1` (racemic) [Example 43, (±)-4-(2-Oxo-1,4-dihydro-2H-quinazolin-3-yl)-piperidine-1-carboxylic acid[2-[1,4′]bipiperidinyl-1′-yl-1-(7-chloro-1H-indazol-5-ylmethyl)-2-oxo-ethyl]-amide], in assay [1] (setting [5]), the Kb was 0.018 nM. Further, the slope in assay [1] came out at 1.2. For the same compound, the EC50 in assay [2] was < 10 nM. For the same compound, the IC50 in assay [3] and in assay [4] (setting [6]) was < 10 nM throughout.
Regarding `Cc1cc(CC(NC(=O)N2CCC(N3Cc4ccccc4NC3=O)CC2)C(=O)N(C)C)cc2cn[nH]c12` (racemic) [Example 18, (±)-4-(2-Oxo-1,4-dihydro-2H-quinazolin-3-yl)-piperidine-1-carboxylic acid[1-dimethylcarbamoyl-2-(7-methyl-1H-indazol-5-yl)-ethyl]-amide], the Kb in assay [1] (setting [5]) came out at 1 nM. This compound also came in with a slope in assay [1] of 0.8. Moreover, the EC50 in assay [2] is < 10 nM. For the same compound, the IC50 in assay [3] was < 10 nM; in assay [4] (setting [6]), 10 to 100 nM.
In turn, `Cc1cc(CC(CC(=O)N2CCC3(CC2)OC(=O)Nc2ccccc23)C(=O)N2CCC3(CC2)OCCO3)cc2cn[nH]c12` (racemic) [Example 71, (±)-1-(1,4-Dioxa-8-aza-spiro[4.5]dec-8-yl)-2-(7-methyl-1H-indazol-5-ylmethyl)-4-[1′,2′-dihydro-2′-oxospiro-[4H-3′,1-benzoxazine-4,4′-piperidinyl]-butane-1,4-dione] had a Kb in assay [1] of 2 nM. Besides, the slope in assay [1] is on record as 0.87. Moreover, the EC50 in assay [2] is < 10 nM. Moreover, the IC50 in assay [3] and in assay [4] was < 10 nM throughout.
In the case of `Cc1cc(CC(NC(=O)N2CCC(N3Cc4ccccc4NC3=O)CC2)C(=O)N2CCN(c3ccncc3)CC2)cc2cn[nH]c12` (racemic) [Example 21, (±)-4-(2-Oxo-1,4-dihydro-2H-quinazolin-3-yl)-piperidine-1-carboxylic acid[1-(7-methyl-1H-indazol-5-ylmethyl)-2-oxo-2-(4-pyridin-4-yl-piperazin-1-yl)-ethyl]-amide], the Kb in assay [1] (setting [5]) was determined as 0.018 nM. The compound further displayed a slope in assay [1] of 0.89. For the same compound, in assay [2], the EC50 was < 10 nM. The IC50 in assay [3] and in assay [4] (setting [6]) was < 10 nM throughout.
As for `Cc1cc(CC(NC(=O)N2CCC(N3Cc4ccccc4NC3=O)CC2)C(=O)N2CCCCC2)cc2cn[nH]c12` (racemic) [Example 17, (±)-4-(2-Oxo-1,4-dihydro-2H-quinazolin-3-yl)-piperidine-1-carboxylic acid[1-(7-methyl-1H-indazol-5-ylmethyl)-2-oxo-2-piperidin-1-yl-ethyl]-amide], in assay [1] (setting [5]), the Kb came to 1.1 nM. Besides, the slope in assay [1] worked out at 0.92. The EC50 in assay [2] is < 10 nM. Besides, the IC50 in assay [3] and in assay [4] (setting [6]) was < 10 nM in each case.
`Cc1cc(CC(CC(=O)N2CCC(N3Cc4ccccc4NC3=O)CC2)C(=O)N2CCC3(CC2)OCCO3)cc2cn[nH]c12` (racemic) [Example 70, (±)-1-(1,4-Dioxa-8-aza-spiro[4.5]dec-8-yl)-2-(7-methyl-1H-indazol-5-ylmethyl)-4-[4-(2-oxo-1,4-dihydro-2H-quinazolin-3-yl)-piperidin-1-yl]-butane-1,4-dione]: in assay [1], the slope was found to be 0.71. Moreover, in assay [2], the EC50 is < 10 nM. For the same compound, the IC50 in assay [3] and in assay [4] was < 10 nM in each case.
In the case of `O=C(N[C@H](Cc1ccc2[nH]c(=O)oc2c1)C(=O)N1CCC(N2CCCCC2)CC1)N1CCC(N2Cc3ccccc3NC2=O)CC1` [Example 47, (R)-4-(2-Oxo-1,4-dihydro-2H-quinazolin-3-yl)-piperidine-1-carboxylic acid[2-[1,4′]bipiperidinyl-1′-yl-2-oxo-1-(2-oxo-2,3-dihydro-benzooxazol-6-ylmethyl)-ethyl]-amide], the Kb in assay [1] (setting [5]) is 0.1 nM. This compound also yielded a slope in assay [1] of 0.93. The EC50 in assay [2] is < 10 nM. Moreover, the IC50 in assay [3] and in assay [4] (setting [6]) was < 10 nM throughout.
Compound `CCc1cc(CC(NC(=O)N2CCC(N3Cc4ccccc4NC3=O)CC2)C(=O)N2CCC(N3CCCCC3)CC2)cc2cn[nH]c12` (racemic) [Example 45, (±)-4-(2-Oxo-1,4-dihydro-2H-quinazolin-3-yl)-piperidine-1-carboxylic acid[2-[1,4′]bipiperidinyl-1′-yl-1-(7-ethyl-1H-indazol-5-ylmethyl)-2-oxo-ethyl]-amide] displayed a slope in assay [1] of 1.4. Moreover, in assay [3], the IC50 is < 10 nM.
For `COC(=O)C(CC(=O)N1CCC(N2Cc3ccccc3NC2=O)CC1)Cc1cc(C)c2[nH]ncc2c1` (racemic) [Example 67, (±)-2-(7-Methyl-1H-indazol-5-ylmethyl)-4-oxo-4-[4-(2-oxo-1,4-dihydro-2H-quinazolin-3-yl)-piperidin-1-yl]-butyric acid methyl ester], the EC50 in assay [2] lay within 10 to 100 nM. For the same compound, the IC50 in assay [3] lay in the range of 10 to 100 nM; in assay [4] (setting [6]), 100 to 1000 nM.
Consider `Cc1cc(CC(CC(=O)N2CCC(N3Cc4ccccc4NC3=O)CC2)C(=O)N(C)C)cc2cn[nH]c12` (racemic) [Example 72, (±)-N,N-Dimethyl-2-(7-methyl-1H-indazol-5-ylmethyl)-4-oxo-4-[4-(2-oxo-1,4-dihydro-2H-quinazolin-3-yl)-piperidin-1-yl]-butyramide], for which, in assay [2], the EC50 was < 10 nM. Further, the IC50 in assay [3] and in assay [4] (setting [6]) was < 10 nM throughout.
Consider `Cc1cc(CC(NC(=O)N2CCC3(CC2)NC(=O)Nc2ccccc23)C(=O)N2CCC(N3CCCCC3)CC2)cc2cn[nH]c12` (racemic) [Example 23, (±)-1-(7-Methyl-1H-indazol-5-ylmethyl)-2-[1,4-bipiperidin]-1-yl-2-oxoethyl]-2′,3′-dihydro-2′-oxospiro-[piperidine-4,4′-(1H)-quinazoline]-1-carboxamide], for which the EC50 in assay [2] is < 10 nM. The IC50 in assay [3] and in assay [4] (setting [6]) was < 10 nM throughout.
Turning to `O=C(NC(Cc1ccc2[nH]ccc2c1)C(=O)N1CCC(N2CCCCC2)CC1)N1CCC(N2Cc3ccccc3NC2=O)CC1` (racemic) [Example 5, (±)-4-(2-Oxo-1,4-dihydro-2H-quinazolin-3-yl)-piperidine-1-carboxylic acid[2-[1,4′]bipiperidinyl-1′-yl-1-(1H-indol-5-ylmethyl)-2-oxo-ethyl]-amide], the Kb in assay [1] (setting [5]) came out at 3 nM. In assay [1], this compound displayed a slope of 0.92. Further, the concentration for half-maximal inhibition (IC50) in assay [3] and in assay [4] (setting [6]) was < 10 nM throughout.
